This note sets out measurements from ChEMBL document CHEMBL1201862, “PubChem BioAssay data set” (2004).

“And” between values parts separate entries of the source, which are not always exact repeats. Equal entries are not always repeated.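 Cells were grown in 96-well plates and exposed to each compound for 48 hours at five concentrations; endpoints were interpolated linearly between bracketing concentrations, or set to the highest concentration if not reached. The concentration for 50% growth inhibition is given as GI50.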 The source made the active and inactive calls. Cut-off read from the data, not from the text of the source: active = GI50 up to about 1.1 µM and inactive = higher.

Common to all, as to assay: NCI anticancer screen, dose series, 48 h
For assay [1], the system named is A549.
Assay [2] relates to CAKI-1.
The subject of assay [3] is HCT-116.
In assay [4] the test system is HCT-15.
Assay [5] deals with HL-60.
For assay [6], the system named is HOP-62.
Assay [7] concerns HOP-92.
Assay [8] concerns HT-29.
Assay [9] has as its system IGROV-1.
Assay [10] has as its system K562.
Assay [11] relates to KM12.
Assay [12] has as its system NCI-H522.
Assay [13] relates to OVCAR-5.
Assay [14] concerns RPMI-8226.
In assay [15] the test system is SF-268.
Assay [16] has as its system SK-MEL-28.
In assay [17] the test system is SK-MEL-2.
Assay [18] has as its system SK-MEL-5.
Assay [19] deals with SW-620.
The subject of assay [20] is UACC-62.

Consider `COc1ncnc2c(Cl)c(C(O)c3ccccc3)c(Cl)cc12` (stereo unspecified), for which the GI50 in assay [1] is 34.8 µM (inactive); in [2] it was 34.7 µM (inactive); in [3] it was 17.9 µM (inactive); in [4], 24.6 µM; in [5], 27.5 µM (inactive); in assay [6], 15.2 µM (inactive). Besides, the GI50 was 15.7 µM (inactive) in [7]; 30.1 µM (inactive) in assay [8]; 29.3 µM (inactive) in assay [9]; 14.9 µM (inactive) in [10]; 26.7 µM (inactive) in [11]; 31.3 µM (inactive) in assay [12]. Moreover, the GI50 in [13] is 60.5 µM (inactive); in [14] it was 18.7 µM (inactive); in assay [15], 21 µM (inactive); in assay [16], 34.6 µM (inactive); in assay [17], 33.6 µM (inactive); in assay [18], 26.2 µM (inactive). Also, the results for the GI50 in assay [19] and in [20] were 25.6 µM (inactive) and 16.1 µM (inactive), respectively.
For the compound `OC(c1ccc(Br)cc1)(c1cccs1)C1CC1` (stereo unspecified), the GI50 is 35.7 µM (inactive) in assay [1]; 20.8 µM (inactive) in assay [2]; 16.3 µM (inactive) in [3]; 25.4 µM in assay [4]; 20.8 µM (inactive) in assay [5]; 23.3 µM (inactive) in assay [6]. The GI50 in assay [7] was 19.7 µM (inactive); in assay [8], 23.4 µM (inactive); in assay [9] it was 15.7 µM (inactive); in assay [10], 29.9 µM (inactive); in assay [11] it was 17.7 µM (inactive); in assay [12], 18.5 µM (inactive). The GI50 in assay [13] was 26.7 µM (inactive); in assay [14] it was 21.6 µM (inactive); in assay [15] it was 20.7 µM (inactive); in [16], 22.2 µM (inactive); in assay [17] it was 20.4 µM (inactive); in assay [18], 18.7 µM (inactive). The GI50 was 30.5 µM (inactive) in assay [19] and 16.4 µM (inactive) in [20].
Regarding `CCOC(=O)/C(C#N)=C\c1ccc(N(CCC(=O)O)CCC(=O)O)c(I)c1`, the GI50 in assay [1] is > 10 µM (inactive); in assay [2], > 10 µM (inactive); in assay [3], > 10 µM (inactive); in assay [4], greater than 10 µM; in [5] it was > 10 µM (inactive); in assay [6] it was > 10 µM (inactive). Further, the GI50 in [7], in assay [8], in assay [9], in assay [10], in [11] and in assay [12] was > 10 µM (inactive) throughout. Besides, the GI50 in assay [14], in assay [15], in [16], in assay [18], in [19] and in assay [20] was > 10 µM (inactive) in each case.
Turning to `COc1ccccc1/C=C1\Sc2scc(-c3cccc([N+](=O)[O-])c3)[n+]2C1=O`, the GI50 was 17.1 µM (inactive) in [1]; 2.43 µM (inactive) in assay [2]; 4.69 µM (inactive) in assay [3]; 2.11 µM in [4]; 0.26 µM (active) in assay [5]; 13.9 µM (inactive) in [6]. The GI50 is 4.98 µM (inactive) in [7]; 3.27 µM (inactive) in assay [8]; 7.46 µM (inactive) in assay [9]; 2.79 µM (inactive) in assay [10]; 10.8 µM (inactive) in [11]; 1.34 µM (inactive) in assay [12]. Further, the GI50 was 15.6 µM (inactive) in assay [13]; 3.18 µM (inactive) in [14]; 4.78 µM (inactive) in assay [15]; 15 µM (inactive) in [16]; 12.8 µM (inactive) in assay [17]; 2.53 µM (inactive) in assay [18]. For the same compound, the GI50 in [19] was 4.32 µM (inactive); in assay [20], 8.51 µM (inactive).
Regarding `O=[N+]([O-])c1ccc(-c2nc(/C=N/N3CCCCC3)cs2)o1`, the GI50 in assay [1] was 40 µM (inactive); in assay [2] it was > 100 µM (inactive); in assay [3], 34.1 µM (inactive); in [4], 32.6 µM; in assay [5], 20.1 µM (inactive); in [6], 53 µM (inactive). Further, the GI50 in assay [7] is > 100 µM (inactive); in assay [8], 25.9 µM (inactive); in assay [9] it was 50.8 µM (inactive); in [10] it was 57.5 µM (inactive); in [11] it was 33.9 µM (inactive); in assay [12], 45.2 µM (inactive). Further, the GI50 in assay [13] is > 100 µM (inactive); in assay [14], 19.1 µM (inactive); in [15], > 100 µM (inactive); in assay [16], 31.6 µM (inactive); in [17], > 100 µM (inactive); in assay [18], 18 µM (inactive). Besides, the figures for the GI50 in assay [19] and in assay [20] were > 100 µM (inactive) and 31.9 µM (inactive), respectively.
In the case of `CCOC(=O)c1c(CN2CCNCC2)nc2ccccc2c1-c1ccccc1`, the GI50 is 16.7 µM (inactive) in assay [1]; 12.2 µM (inactive) in assay [2]; 11.4 µM (inactive) in assay [3]; 16.1 µM in assay [4]; 12.9 µM (inactive) in assay [5]; 16.9 µM (inactive) in assay [6]. For the same compound, the GI50 in assay [7] was 4.69 µM (inactive); in assay [8], 5.41 µM (inactive); in assay [9], 15.3 µM (inactive); in assay [10], 12.6 µM (inactive); in assay [11] it was 15.6 µM (inactive); in [12], 14.3 µM (inactive). Further, the GI50 in assay [13] is 16.8 µM (inactive); in assay [14], 14.4 µM (inactive); in [15] it was 14 µM (inactive); in [16] it was 11.7 µM (inactive); in [17], 15.6 µM (inactive); in [18], 13.6 µM (inactive). The GI50 in assay [19] is 17.1 µM (inactive); in assay [20], 15 µM (inactive).
As to `COC(=O)/C=C\Sc1ccn(/C=C\C(=O)OC)c(=S)n1`, the GI50 in assay [1] was 22.1 µM (inactive); in assay [2], 16.6 µM (inactive); in [4] it was 16.7 µM; in [5] it was > 100 µM (inactive); in assay [6], 17.1 µM (inactive); in [7], 18.5 µM (inactive). Moreover, the GI50 in assay [8] is 22.2 µM (inactive); in assay [9] it was 16.9 µM (inactive); in [10] it was 38.5 µM (inactive); in assay [11], 12.4 µM (inactive); in assay [12], 16.1 µM (inactive); in assay [13], 38.5 µM (inactive). Moreover, the GI50 is 46 µM (inactive) in [14]; 24.4 µM (inactive) in assay [15]; 29.9 µM (inactive) in assay [16]; 19.9 µM (inactive) in [17]; 24.1 µM (inactive) in assay [18]; 26 µM (inactive) in [19].
Take `COc1ccc(OC)c(/C=C/C(=O)C(C)(C)C)c1`: the GI50 in [1] is 29.4 µM (inactive); in assay [2] it was 20.6 µM (inactive); in [3], 17.9 µM (inactive); in assay [4], 20.1 µM; in assay [5], 14.7 µM (inactive); in assay [6], 23.3 µM (inactive). The GI50 was 18.7 µM (inactive) in [7]; 27.4 µM (inactive) in [8]; 18.2 µM (inactive) in [9]; 20.8 µM (inactive) in assay [10]; 21.1 µM (inactive) in assay [11]; 13.8 µM (inactive) in [12]. Also, the GI50 in assay [13] is > 10 µM (inactive); in [14], 13.3 µM (inactive); in [15], > 10 µM (inactive); in [16], 17.2 µM (inactive); in [17], > 10 µM (inactive); in assay [18], 15 µM (inactive). In addition, the GI50 in [19] is 14.5 µM (inactive); in [20] it was 9.55 µM (inactive).
With `C[C@@H]1C[C@]2(C[C@@H](C)[C@H]3C(C[C@@]4(C)CCC[C@@H]5C6=C[C@H](CCC34C)OC6=CC(=O)OC5(C)C)O2)OC1=O` (stereo partly specified), the GI50 is > 51.5 µM (inactive) in [1]; > 51.5 µM (inactive) in assay [2]; greater than 51.5 µM in [4]; > 51.5 µM (inactive) in [5]; > 51.5 µM (inactive) in assay [6]; 43.1 µM (inactive) in assay [7]. The GI50 in [8], in assay [9], in [10], in [11], in assay [12] and in [13] was > 51.5 µM (inactive) throughout. For the same compound, the GI50 in [14], in assay [17], in assay [18], in assay [19] and in [20] was > 51.5 µM (inactive) throughout.
For the compound `Cc1occc1C(=S)Nc1ccc(Cl)c(C(=O)OCC(C)C)c1`, the GI50 in assay [1] is 20.3 µM (inactive); in [2], 21.5 µM (inactive); in [3] it was 14.4 µM (inactive); in [4], 16.9 µM; in assay [5], 29.4 µM (inactive); in [7] it was 17.4 µM (inactive). The GI50 in [8] is 13.2 µM (inactive); in assay [9], 18.1 µM (inactive); in assay [10], 12.1 µM (inactive); in assay [11], 14.4 µM (inactive); in assay [12] it was 14.1 µM (inactive); in assay [13], 31.8 µM (inactive). Also, the GI50 in assay [14] is 19.4 µM (inactive); in [15], 21.4 µM (inactive); in [16] it was 16.3 µM (inactive); in assay [17], 19.5 µM (inactive); in assay [18], 15.4 µM (inactive); in [19], 19.2 µM (inactive). Moreover, in [20], the GI50 was 12.6 µM (inactive).
`CC(Oc1ccc(Oc2cnc3ccc(Cl)cc3n2)cc1)C(=O)O` (stereo unspecified): the GI50 is 68.5 µM (inactive) in assay [1]; > 100 µM (inactive) in assay [2]; 88.7 µM (inactive) in assay [3]; > 100 µM (inactive) in assay [5]; > 99.3 µM (inactive) in assay [6]; > 100 µM (inactive) in assay [7]. For the same compound, the GI50 was 37.4 µM (inactive) and 47.4 µM (inactive) in assay [9]; 32.7 µM (inactive) in [12]; > 100 µM (inactive) in [13]; 89.7 µM (inactive) in [15]; > 100 µM (inactive) in assay [17]; > 62.8 µM (inactive) and 72.8 µM (inactive) in assay [18]. The GI50 in assay [19] is > 99.8 µM (inactive); in assay [20], > 100 µM (inactive) and 81.1 µM (inactive).
